For one assay, the system named is Erk1/2 phosphorylation. The experiment in a line: Erk1/2 Phosphorylation Assay (western blot), Panc-1. Particulars: at 10 μM, * = activation. Format: cell-based, human. The procedure, abridged: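 Phospho-Erk1/2 (Thr202/Tyr204) was detected by western blot in lysates of Panc-1 cells (KRas G12D). These had 6 h, 37° C exposure to 10 μM compound or a dilution series for IC50, in 0.3% DMSO. Cells were either starved overnight in 0.5% FBS with a 15-min 1.5 ng/ml EGF pulse, or kept unstimulated in 10% FBS.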
(Immunoblotting shows a protein as a band on a membrane.)

The next assay deals with IL6. The assay is described as follows: IL-6 Quantification Assay (ELISA), LPS-stimulated RAW 264.7. Particulars: Mus musculus, RAW264.7; read-out: IL-6: % inh. Format: cell-based. Also noted: inhibition: dose or concentration left out as unconfirmed. A general note: An ELISA detects its analyte on a solid surface through an enzyme-linked reagent.

As for `COc1cncnc1Nc1nc(-c2nccn2C)nn2cc(-c3ccn(C(C)C)n3)c(C)c12` [Compound 73, 6-(1-Isopropyl-1H-pyrazol-3-yl)-N-(5-methoxypyrimidin-4-yl)-5-methyl-2-(1-methyl-1H-imidazol-2-yl)pyrrolo[2,1-f][1,2,4]triazin-4-amine], the “% inh of Erk1/2 phosphorylation in Panc-1” value (from here on “% inh”) in the assay on Erk1/2 phosphorylation is listed as “D* (85-100% activation)”. Further, the inhibition with IL6 fell in the range of 50 to 74%.
For `COc1cccc(Nc2nc(-c3nccn3C)nn3ccc(-c4ccccc4)c23)n1` [Compound 40, N-(6-Methoxypyridin-2-yl)-2-(1-methyl-1H-imidazol-2-yl)-5-phenylpyrrolo[2,1-f][1,2,4]triazin-4-amine] the same measures were 0 (0% inhibition) and 75 to 100%.
In the same order, the values of `Cc1[nH]nc(Nc2nc(-c3nccn3C)nn3cc(-c4ccn(C)n4)c(C)c23)c1C` [Compound 267, N-(4,5-Dimethyl-1H-pyrazol-3-yl)-5-methyl-2-(1-methyl-1H-imidazol-2-yl)-6-(1-methyl-1H-pyrazol-3-yl)pyrrolo[2,1-f][1,2,4]triazin-4-amine] are “D* (85-100% activation)” and 50 to 74%.
On to `Cc1c(-c2ccn(C)n2)cn2nc(-c3nccn3C)nc(Nc3cc(C(C)C)[nH]n3)c12` [Compound 268, N-(5-Isopropyl-1H-pyrazol-3-yl)-5-methyl-2-(1-methyl-1H-imidazol-2-yl)-6-(1-methyl-1H-pyrazol-3-yl)pyrrolo[2,1-f][1,2,4]triazin-4-amine], for which, in the assay on Erk1/2 phosphorylation, the “% inh” value is listed as “D* (85-100% activation)”. Further, the inhibition with IL6 is 75 to 100%.
In the same order, the values of `Cc1c(-c2ccn(C)n2)cn2nc(-c3nccn3C)nc(Nc3cc(-c4ccccc4)[nH]n3)c12` [Compound 263, 5-Methyl-2-(1-methyl-1H-imidazol-2-yl)-6-(1-methyl-1H-pyrazol-3-yl)-N-(5-phenyl-1H-pyrazol-3-yl)pyrrolo[2,1-f][1,2,4]triazin-4-amine] are “A (1-25% inhibition)” and 75 to 100%.
For `COc1cc(Nc2nc(-c3nccn3C)nn3cc(-c4ccn(C)n4)c(C)c23)nn1C` [Compound 253, N-(5-Methoxy-1-methyl-1H-pyrazol-3-yl)-5-methyl-2-(1-methyl-1H-imidazol-2-yl)-6-(1-methyl-1H-pyrazol-3-yl)pyrrolo[2,1-f][1,2,4]triazin-4-amine] the same measures were “C* (46-84% activation)” and 25 to 49%.
For `COc1ccc(F)c(-c2cn3nc(-c4nccn4C)nc(N[C@H]4C[C@H](OC)C4)c3c2-c2ccccc2)c1F` [Compound 273, 6-(2,6-Difluoro-3-methoxyphenyl)-N-((1r,3r)-3-methoxycyclobutyl)-2-(1-methyl-1H-imidazol-2-yl)-5-phenylpyrrolo[2,1-f][1,2,4]triazin-4-amine] the same measures were “D (85-100% inhibition)” and 75 to 100%.
In the case of `COc1ccnc(Nc2nc(-c3nccn3C)nn3cc(-c4ccn(C)n4)c(C4CC4)c23)c1` [Compound 276, 5-Cyclopropyl-N-(4-methoxypyridin-2-yl)-2-(1-methyl-1H-imidazol-2-yl)-6-(1-methyl-1H-pyrazol-3-yl)pyrrolo[2,1-f][1,2,4]triazin-4-amine], the “% inh” value in the assay with Erk1/2 phosphorylation was “D* (85-100% activation)”. The inhibition with IL6 lay within 50 to 74%.
Consider `Cc1c(-c2ccn(C)n2)cn2nc(-c3nccn3C)nc(N3CCc4cc(C(F)(F)F)cnc43)c12` [Compound 251, 5-Methyl-2-(1-methyl-1H-imidazol-2-yl)-6-(1-methyl-1H-pyrazol-3-yl)-4-(5-(trifluoromethyl)-2,3-dihydro-1H-pyrrolo[2,3-b]pyridin-1-yl)pyrrolo[2,1-f][1,2,4]triazine], for which the “% inh” value in the assay with Erk1/2 phosphorylation is reported as “B (26-49% inhibition)”.

The values above are taken from US12459951B2, “Compounds that interact with RAS superfamily proteins for treatment of cancers, inflammatory diseases, rasopathies, and fibrotic disease” (SHY Therapeutics, LLC, priority 2022, dated 2025).
